Test results published in PubChem BioAssay AID248 (DTP/NCI, 2004).
“And” between values parts separate entries of the source, which are not always exact repeats. Identical values can stand only once. Inconclusive results and toxic doses are left out. Rule as the data show it: active = T/C of 150% or more; inactive = T/C below 125%.

Tested on: L1210 leukemia ip in BDF1 mice, survival T/C
Assay: NCI In Vivo Anticancer Drug Screen. Data for tumor model L1210 Leukemia (intraperitoneal) in B6D2F1 (BDF1) mice
Settings: endpoint: mean survival time, higher = longer survival
How it was run: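 Tumor was transplanted into mice, which were then dosed with test compound or vehicle alone. Survival was recorded for each group, and the treated figure was expressed relative to the control figure.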

[1] = dose: 100.0 mg/kg/injection, schedule: Q04DX002 (ip), vehicle: Klucel (hydroxypropylcellulose) (HPC)
[2] = dose: 200.0 mg/kg/injection, schedule: Q04DX002 (ip), vehicle: Klucel (hydroxypropylcellulose) (HPC)
[3] = dose: 400.0 mg/kg/injection, schedule: Q04DX002 (ip), vehicle: Klucel (hydroxypropylcellulose) (HPC)
[4] = dose: 100.0 mg/kg/injection, schedule: Q04DX003 (ip), vehicle: saline
[5] = dose: 200.0 mg/kg/injection, schedule: Q04DX003 (ip), vehicle: saline
[6] = dose: 400.0 mg/kg/injection, schedule: Q04DX003 (ip), vehicle: saline
[7] = dose: 100.0 mg/kg/injection, schedule: Q01DX001 (ip), vehicle: carboxymethylcellulose (CMC)
[8] = dose: 200.0 mg/kg/injection, schedule: Q01DX001 (ip), vehicle: carboxymethylcellulose (CMC)
[9] = dose: 400.0 mg/kg/injection, schedule: Q01DX001 (ip), vehicle: carboxymethylcellulose (CMC)
[10] = dose: 50.0 mg/kg/injection, schedule: Q01DX009 (ip), vehicle: saline
[11] = dose: 50.0 mg/kg/injection, schedule: Q04DX003 (ip), vehicle: saline
[12] = dose: 100.0 mg/kg/injection, schedule: Q01DX009 (ip), vehicle: saline
[13] = dose: 100.0 mg/kg/injection, schedule: Q01DX001 (ip), vehicle: saline
[14] = dose: 200.0 mg/kg/injection, schedule: Q01DX001 (ip), vehicle: saline
[15] = dose: 100.0 mg/kg/injection, schedule: Q04DX002 (ip), vehicle: saline
[16] = dose: 200.0 mg/kg/injection, schedule: Q04DX002 (ip), vehicle: saline
[17] = dose: 400.0 mg/kg/injection, schedule: Q04DX002 (ip), vehicle: saline
[18] = dose: 25.0 mg/kg/injection, schedule: Q01DX009 (ip), vehicle: saline with Tween-80
[19] = dose: 50.0 mg/kg/injection, schedule: Q01DX009 (ip), vehicle: saline with Tween-80
[20] = dose: 100.0 mg/kg/injection, schedule: Q01DX009 (ip), vehicle: saline with Tween-80
[21] = dose: 400.0 mg/kg/injection, schedule: Q01DX001 (ip), vehicle: saline

Measured: T/C

Cc1nc([N+](=O)[O-])cn1CCN1CCOCC1
inactive: dose: 50.0 mg/kg/injection, schedule: Q01DX009 (ip), vehicle: Klucel (hydroxypropylcellulose) (HPC) 102 % of control | dose: 100.0 mg/kg/injection, schedule: Q01DX009 (ip), vehicle: Klucel (hydroxypropylcellulose) (HPC) 94 % of control | [1] 92 % of control | dose: 200.0 mg/kg/injection, schedule: Q01DX009 (ip), vehicle: Klucel (hydroxypropylcellulose) (HPC) 102 % of control | [2] 105 % of control | [3] 105 % of control

Cc1ccc(S(=O)(=O)NN=C(C2=CCCCC2)C2=CCCCC2)cc1
inactive: [4] 94 % of control | [5] 93 % of control | [6] 93 % of control

Clc1cccc(N=C/C=C/c2ccccc2)c1
inactive: [7] 105 % of control | dose: 100.0 mg/kg/injection, schedule: Q01DX009 (ip), vehicle: carboxymethylcellulose (CMC) 96 % of control and 100 % of control | dose: 100.0 mg/kg/injection, schedule: Q04DX002 (ip), vehicle: carboxymethylcellulose (CMC) 94 % of control and 100 % of control | dose: 100.0 mg/kg/injection, schedule: Q04DX003 (ip), vehicle: carboxymethylcellulose (CMC) 92 % of control | [8] 96 % of control | dose: 200.0 mg/kg/injection, schedule: Q01DX009 (ip), vehicle: carboxymethylcellulose (CMC) 107 % of control and 92 % of control | dose: 200.0 mg/kg/injection, schedule: Q04DX002 (ip), vehicle: carboxymethylcellulose (CMC) 95 % of control and 97 % of control | dose: 200.0 mg/kg/injection, schedule: Q04DX003 (ip), vehicle: carboxymethylcellulose (CMC) 96 % of control | [9] 102 % of control | dose: 400.0 mg/kg/injection, schedule: Q01DX009 (ip), vehicle: carboxymethylcellulose (CMC) 103 % of control | dose: 400.0 mg/kg/injection, schedule: Q04DX002 (ip), vehicle: carboxymethylcellulose (CMC) 94 % of control and 98 % of control | dose: 400.0 mg/kg/injection, schedule: Q04DX003 (ip), vehicle: carboxymethylcellulose (CMC) 107 % of control

OCCN1CCC(CCCC2CCNCC2)CC1
inactive: dose: 10.0 mg/kg/injection, schedule: Q01DX Z (ip), vehicle: saline 97 % of control | dose: 25.0 mg/kg/injection, schedule: Q01DX009 (ip), vehicle: saline 102 % of control | dose: 25.0 mg/kg/injection, schedule: Q04DX003 (ip), vehicle: saline 111 % of control | dose: 30.0 mg/kg/injection, schedule: Q01DX Z (ip), vehicle: saline 102 % of control | [10] 96 % of control | [11] 98 % of control | [12] 91 % of control | [4] 108 % of control

N#CCc1ccc2[nH]c3c(c2c1)CCCC3
inactive: [1] 106 % of control | [2] 92 % of control | [3] 92 % of control

O=c1[nH]c(=O)n(C2OC(CO)C(O)C2O)c2scnc12 (configuration not stated)
inactive: dose: 100.0 mg/kg/injection, schedule: Q01DX005 (ip), vehicle: saline 98 % of control | dose: 200.0 mg/kg/injection, schedule: Q01DX005 (ip), vehicle: saline 100 % of control

O=C1NC(=O)C2C3C(C(O)(c4ccccc4)c4ccccn4)=CC(/C3=C(\c3ccccc3)c3ccccn3)C12 (configuration not stated)
inactive: dose: 0.5 mg/kg/injection, schedule: Q01DX010 (ip), vehicle: saline 101 % of control | dose: 1.0 mg/kg/injection, schedule: Q01DX010 (ip), vehicle: saline 93 % of control | dose: 2.0 mg/kg/injection, schedule: Q01DX010 (ip), vehicle: saline 101 % of control | dose: 2.0 mg/kg/injection, schedule: Q01DX010 (oral), vehicle: saline 96 % of control | dose: 4.0 mg/kg/injection, schedule: Q01DX010 (ip), vehicle: saline 93 % of control | dose: 4.0 mg/kg/injection, schedule: Q01DX010 (oral), vehicle: saline 96 % of control | dose: 8.0 mg/kg/injection, schedule: Q01DX010 (oral), vehicle: saline 96 % of control | dose: 16.0 mg/kg/injection, schedule: Q01DX010 (oral), vehicle: saline 96 % of control | [7] 98 % of control | [8] 102 % of control | [9] 104 % of control

Nc1ncnc2c1ncn2C1OC(COC2C(CO)OC(OC(C(=O)O)C(O)C(OP(=O)(O)O)C(O)C(=O)O)C(O)C2O)C(O)C1O (configuration not stated)
inactive: dose: 0.25 mg/kg/injection, schedule: Q04DX002 (ip), vehicle: saline + alcohol 91 % of control | dose: 0.5 mg/kg/injection, schedule: Q04DX002 (ip), vehicle: saline + alcohol 94 % of control | dose: 1.0 mg/kg/injection, schedule: Q04DX002 (ip), vehicle: saline + alcohol 98 % of control

CCC(=O)c1cc2c(c3c1CCCC3)CCCC2
inactive: dose: 200.0 mg/kg/injection, schedule: Q01DX009 (ip), vehicle: other 90 % of control

CN(C)/N=N/c1nc[nH]c1C(=O)NCCc1ccccc1
inactive: dose: 100.0 mg/kg/injection, schedule: Q01DX001 (ip), vehicle: other 108 % of control | dose: 200.0 mg/kg/injection, schedule: Q01DX001 (ip), vehicle: other 108 % of control

C=CCOC(=S)S
inactive: [13] 95 % of control | [14] 94 % of control

COC(=O)/C=C/Nc1ccccc1
inactive: dose: 100.0 mg/kg/injection, schedule: Q04DX003 (ip), vehicle: other 98 % of control | dose: 200.0 mg/kg/injection, schedule: Q04DX003 (ip), vehicle: other 98 % of control | dose: 400.0 mg/kg/injection, schedule: Q04DX003 (ip), vehicle: other 94 % of control

CCCC(C(N)=O)N(CCO)CCO (configuration not stated)
inactive: [15] 90 % of control | [16] 90 % of control | [17] 90 % of control

COc1cc(OC)c(C(=O)CCl)c(O)c1Cl
inactive: dose: 100.0 mg/kg/injection, schedule: Q04DX003 (ip), vehicle: saline with Tween-80 99 % of control | dose: 200.0 mg/kg/injection, schedule: Q04DX003 (ip), vehicle: saline with Tween-80 104 % of control | dose: 400.0 mg/kg/injection, schedule: Q04DX003 (ip), vehicle: saline with Tween-80 92 % of control

C1=C(c2ccccc2)S/C(=C/c2ccccc2)S1
inactive: [18] 96 % of control | [19] 96 % of control | [11] 88 % of control | [13] 93 % of control | [20] 94 % of control | [4] 87 % of control | [14] 88 % of control | [21] 88 % of control

CCC(=O)/C=C/C1C(C)=CCCC1(C)C (configuration not stated)
inactive: [20] 86 % of control | [4] 100 % of control | dose: 200.0 mg/kg/injection, schedule: Q01DX009 (ip), vehicle: saline with Tween-80 90 % of control | [5] 102 % of control | [6] 100 % of control

C=CC1CCCCC1C=C (configuration not stated)
inactive: dose: 12.5 mg/kg/injection, schedule: Q01DX009 (ip), vehicle: saline with Tween-80 104 % of control | [18] 102 % of control | [19] 102 % of control

N#Cc1ccc(OCCCCCOc2ccc([N+](=O)[O-])cc2)cc1
inactive: dose: 75.0 mg/kg/injection, schedule: Q01DX009 (ip), vehicle: Klucel (hydroxypropylcellulose) (HPC) 101 % of control | dose: 150.0 mg/kg/injection, schedule: Q01DX009 (ip), vehicle: Klucel (hydroxypropylcellulose) (HPC) 97 % of control | dose: 300.0 mg/kg/injection, schedule: Q01DX009 (ip), vehicle: Klucel (hydroxypropylcellulose) (HPC) 100 % of control

Cc1c(/C=N\Nc2ccccc2)[nH]c(=O)[nH]c1=O
inactive: [13] 92 % of control | [14] 92 % of control | [21] 86 % of control

NCCCN=C(N)C(N)=NCCCN
inactive: [4] 98 % of control | [5] 95 % of control | [6] 104 % of control

Cc1ccc(NCN2C(=O)c3ccccc3C2=O)c(C)c1
inactive: dose: 100.0 mg/kg/injection, schedule: Q04DX003 (ip), vehicle: Klucel (hydroxypropylcellulose) (HPC) 105 % of control | dose: 200.0 mg/kg/injection, schedule: Q04DX003 (ip), vehicle: Klucel (hydroxypropylcellulose) (HPC) 106 % of control | dose: 400.0 mg/kg/injection, schedule: Q04DX003 (ip), vehicle: Klucel (hydroxypropylcellulose) (HPC) 94 % of control

CN(CCN(C)Cc1ccccc1)Cc1ccccc1
inactive: [10] 98 % of control | [12] 101 % of control | [4] 103 % of control | [5] 98 % of control

CN=C(N)C(C)Cl (configuration not stated)
inactive: [15] 106 % of control | [16] 103 % of control | [17] 103 % of control
